Experimental data: US6037333A, “Microbe-inhibiting compositions” (Trustees of Tufts College, priority 1998, dated 2000)
“Also recorded” adds a separate entry of the source. Like-named read-outs stand apart in the source and are kept apart here.

Legend:
[1] = molecular target: mannose binding protein (MBP) of Acanthamoeba (Acanthamoeba castellanii, UniProt Q6J288); assay: Solid-phase assay of 35S-labeled Acanthamoeba binding to Man-BSA coated wells; parameters: species or system Acanthamoeba strain MEEI 0184 (A. castellani); conditions: for Inhibition of amoebic binding to Man-BSA / affinity of amoebic lectin: no concentration stated; for Inhibition of Acanthamoeba binding to Man-BSA: at 100 mM
Text: The Acanthamoeba strain MEEI 0184 (A. castellani based on morphological characteristics) was derived from an infected human cornea and used throughout this study. ATCC strain 30868 should have similar properties. The parasites were axenically cultured in PYG medium. A solid-phase assay characterized the sugar binding properties of the mannose binding protein (MBP) of Acanthamoeba (Z. Yang et al., Infect. Immun. 65:439-445, 1997). Briefly, wells of microtiter plates were coated with bovine serum albumin-α-D-mannopyranosyl phenylisothiocyanate (Man-BSA, 15-25 moles of α-D-mannopyranoside/mole albumin, 0.03 μg/ml, 50μl/well in 0.1 M sodium carbonate buffer, pH 9.6, 4° C. overnight). Nonspecific binding was blocked with 1% BSA in phosphate buffered saline (PBS, 1 hour, room temperature). After adding a 50-μl aliquot of ^35 S-labeled Acanthamoeba (5×10^6 cells/ml in PBS; 1 to 2 cpm/parasite, >95% trophozoites) to each well, the plates were incubated for 2 hours at room temperature. After rinsing the cells with PBS to remove unbound Acanthamoeba, 0.1 ml of 2% sodium dodecyl sulfate (SDS) was added to each well, and the radioactivity in aliquots of solubilized material was determined in a scintillation counter.

Acanthamoeba = assay: Acanthamoeba-induced cytopathic effect (CPE) assay, immortalized corneal epithelial cultures; type: cell-based; conditions: for inhibition at 310 µM: at 0.31 mM; for Inhibition of amoeba-induced CPE: no concentration stated; for inhibition at 50000 µM: at 50 mM
Description: Corneal epithelial cells with extended life span were also produced.
To characterize the role of carbohydrate-mediated host-parasite interactions in the Acanthamoeba-induced cytotoxicity of host cells, in vitro cytopathic assays were performed using both primary and immortalized cultures of corneal epithelium as host cells. Immortalized cells were assayed as confluent cultures in 24-well plates, and primary cells were assayed as confluent cells in 35-mm dishes or 6-well plates.
The plates were incubated at 37° C. in a CO2 incubator and periodically examined under a phase-contrast microscope for the presence of cell-free plaques in the monolayer for up to 28-30 hours. Control wells contained host cells without the parasites. At the end of the incubation period, the cultures were stained with Giemsa (Diff-Quik, Dade Diagnostic Inc., Aguada, PR). Approximate cell density in each well was estimated by scanning the stained plates in a calibrated, computer-assisted Bio-Image Scanner (Millipore, Ann Arbor, Mich.). Cytopathic effect (CPE) was expressed as percentage of the optical density by the following formula: [formula]
The CPE assays were performed in the SFB media containing one or more saccharides to be tested.
After staining with Giemsa, percent cell loss in each well was calculated based on the optical density in each well.

[2] = Acanthamoeba, in Oryctolagus cuniculus, read-out: Inhibition of cytopathic effect (% inhib. at indicated conc.)

Chain of mannose binding protein (MBP) of Acanthamoeba (Q6J288 entry or part of it): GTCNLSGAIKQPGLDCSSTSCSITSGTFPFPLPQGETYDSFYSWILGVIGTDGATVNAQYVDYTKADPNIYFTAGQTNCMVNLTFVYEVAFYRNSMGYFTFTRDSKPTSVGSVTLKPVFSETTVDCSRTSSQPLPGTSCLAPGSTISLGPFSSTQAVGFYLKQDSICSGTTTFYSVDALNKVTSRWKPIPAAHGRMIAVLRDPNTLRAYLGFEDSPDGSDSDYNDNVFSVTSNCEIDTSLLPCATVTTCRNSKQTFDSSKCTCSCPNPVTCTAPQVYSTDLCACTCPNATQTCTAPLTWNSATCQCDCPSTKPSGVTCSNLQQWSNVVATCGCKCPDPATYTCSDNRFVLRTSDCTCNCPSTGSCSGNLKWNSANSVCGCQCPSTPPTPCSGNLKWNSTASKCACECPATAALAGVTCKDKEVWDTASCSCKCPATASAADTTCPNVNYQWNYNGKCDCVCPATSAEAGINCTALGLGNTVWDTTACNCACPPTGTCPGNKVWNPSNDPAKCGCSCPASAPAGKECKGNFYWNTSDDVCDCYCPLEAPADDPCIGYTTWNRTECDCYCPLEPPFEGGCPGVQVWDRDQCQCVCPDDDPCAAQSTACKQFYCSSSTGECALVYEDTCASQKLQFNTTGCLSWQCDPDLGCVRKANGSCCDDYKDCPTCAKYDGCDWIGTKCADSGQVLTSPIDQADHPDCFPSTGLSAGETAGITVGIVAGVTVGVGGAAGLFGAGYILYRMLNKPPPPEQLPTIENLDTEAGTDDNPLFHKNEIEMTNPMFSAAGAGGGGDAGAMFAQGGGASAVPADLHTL

SMILES	Inhibition of amoebic binding to Man-BSA / affinity of amoebic lectin [1]	Inhibition of Acanthamoeba binding to Man-BSA [1]	Inhibition of amoeba-induced cytopathic effect (Acanthamoeba; at 100 mM)	other results
OC[C@H]1O[C@H](O[C@H]2[C@H](O)[C@@H](CO)OC(O)[C@H]2O)[C@@H](O)[C@@H](O)[C@@H]1O (stereo partly drawn) [Man(α1-3)Man]	–	–	–	Relative inhibitory potency in binding to Man-BSA ([1]; comparator named in the value): three times more potent than the corresponding α-1-6 disaccharide; inhibition at 310 µM (Acanthamoeba; [2]): 91%
OC[C@H]1OC(O)[C@H](O)[C@@H](O)[C@@H]1O (stereo partly shown) [glucose]	weak inhibitor	–	–	–
CC(=O)N[C@@H]1C(O)O[C@H](CO)[C@@H](O)[C@@H]1O (stereo partly drawn) [N-acetyl-D-mannosamine]	did not inhibit	did not inhibit	did not inhibit	Inhibition of amoeba-induced CPE (Acanthamoeba): did not inhibit
C[C@@H]1OC(O)[C@H](O)[C@H](O)[C@H]1O (stereo partly drawn) [L-rhamnose]	–	did not inhibit	did not inhibit	–
OC[C@@H](O)[C@@H](O)[C@H](O)[C@H](O)CO [D-mannitol]	did not inhibit	did not inhibit	did not inhibit	Inhibition of amoeba-induced CPE (Acanthamoeba): did not inhibit
OC[C@H]1O[C@H](OC[C@H]2OC(O)[C@@H](O)[C@@H](O)[C@@H]2O)[C@@H](O)[C@@H](O)[C@@H]1O (stereo partly drawn) [Man(α1-6)Man]	–	–	–	inhibition at 310 µM (Acanthamoeba; [2]): 80%
OC1OC[C@@H](O)[C@H](O)[C@@H]1O (stereo partly drawn) [D-lyxose]	lack of inhibitory activity; also recorded: no affinity	did not inhibit	did not inhibit	–
OC[C@@H]1OC(O)[C@H](O)[C@H](O)[C@H]1O (stereo partly drawn) [L-mannose]	–	did not inhibit	–	Inhibition of amoeba-induced cytopathic effect (Acanthamoeba): did not inhibit
CO[C@H]1O[C@H](CO)[C@@H](O)[C@H](O)[C@H]1O [Methyl-α-D-glucopyranoside]	poor inhibitors	–	–	inhibition at 100000 µM ([1]; read-out: Inhibition of binding, % at indicated conc.): 40%; inhibition at 50000 µM (Acanthamoeba; [2]): 31%; Inhibition of amoeba-induced CPE (Acanthamoeba): poor inhibitors
CC(=O)N[C@H]1C(O)O[C@H](CO)[C@H](O)[C@@H]1O (stereo partly drawn) [N-acetyl-D-galactosamine]	–	did not inhibit	did not inhibit	–
OC[C@H]1OC(O)[C@@H](O)[C@H](O)[C@@H]1O (stereo partly drawn) [D-altrose]	not inhibitory	did not inhibit	–	Inhibition of amoeba-induced cytopathic effect (Acanthamoeba): did not inhibit
CO[C@@H]1O[C@H](CO)[C@@H](O)[C@H](O)[C@H]1O [methyl-β-D-glucopyranoside]	–	did not inhibit	did not inhibit	–
O=P(O)(O)OC[C@H]1OC(O)[C@@H](O)[C@@H](O)[C@@H]1O (stereo partly drawn) [D-mannose-6-phosphate]	–	did not inhibit; also recorded: No inhibition	did not inhibit	inhibition at 50000 µM (Acanthamoeba; [2]): 30%
OC[C@H]1O[C@H](O)[C@@H](O)[C@@H](O)[C@H]1O [α-D-talose]	not inhibitory	did not inhibit	did not inhibit	–
OC[C@H]1OC(O)[C@@H](O)[C@@H](O)[C@@H]1O (stereo partly drawn) [D-mannose]	–	–	–	inhibition at 5000 µM (Acanthamoeba; [2]): 50%
